Common to all, as to type: functional
Common to all, as to design: scale not given here

Test [1] concerns Schistosoma mansoni.
Test [2] relates to Schistosoma mansoni. This is another data set of the same source.
In test [3] the test system is Schistosoma mansoni. The source holds these as a separate data set.

As to `COc1ccc(-c2cc(=O)oc3c4c(ccc23)OCN(Cc2ccc(F)cc2)C4)cc1`, the Toxicity in the test with Schistosoma mansoni [1], in the test on Schistosoma mansoni [2] and with Schistosoma mansoni [3] was 0 in each case.
Regarding `Br.CCn1c2c(c(=N)c3c1CCC3)CCCC2`, the Toxicity with Schistosoma mansoni [1], with Schistosoma mansoni [2] and in the test on Schistosoma mansoni [3] was 0 in each case.
Consider `COc1ccc(-c2nc(N3CCN(C(=O)C4CCCCC4)CC3)c3c4c(sc3n2)CCCC4)cc1`, for which the Toxicity in the test with Schistosoma mansoni [1], in the test on Schistosoma mansoni [2] and with Schistosoma mansoni [3] was 0 throughout.
Consider `COCCNC(=O)c1ccc(OC2CCN(Cc3ccc(F)c(F)c3)CC2)c(Cl)c1`, for which the Toxicity with Schistosoma mansoni [1], with Schistosoma mansoni [2] and in the test on Schistosoma mansoni [3] was 0 in each case.
As to `COc1cccc(Nc2nc(NCCO)c3ccccc3n2)c1.Cl`, the Toxicity in the test with Schistosoma mansoni [1], in the test with Schistosoma mansoni [2] and with Schistosoma mansoni [3] was 0 in each case.
For `Cc1ccc(NC(=O)Nc2cccc(Cl)c2)cc1F`, the Toxicity in the test on Schistosoma mansoni [1] came to 0; in the test on Schistosoma mansoni [2] it was 0; in the test with Schistosoma mansoni [3], 1.
In the case of `CCc1ccc(Nc2cc(C)nc3nc(C)nn23)cc1`, the Toxicity in the test with Schistosoma mansoni [1], with Schistosoma mansoni [2] and with Schistosoma mansoni [3] was 0 in each case.
Consider `C=CCc1c(C)nc2ccccc2c1O`, for which the Toxicity in the test on Schistosoma mansoni [1], in the test with Schistosoma mansoni [2] and with Schistosoma mansoni [3] was 0 throughout.
For `N#Cc1nc(Cc2cccc3ccccc23)oc1N1CCN(C(c2ccccc2)c2ccccc2)CC1`, the Toxicity in the test with Schistosoma mansoni [1], in the test with Schistosoma mansoni [2] and with Schistosoma mansoni [3] was 0 in each case.
As to `COc1ccc(C=C2SC(Nc3ccc(F)cc3)=NC2=O)c(OC)c1`, the Toxicity with Schistosoma mansoni [1], with Schistosoma mansoni [2] and with Schistosoma mansoni [3] was 0 each time.
In the case of `CN1c2ccccc2N(C)C1c1ccc2c(c1)OCO2`, the Toxicity in the test with Schistosoma mansoni [1] was 0; in the test with Schistosoma mansoni [2], 0; in the test on Schistosoma mansoni [3], 1.
As to `COc1ccc(C=C2SC(=N)N(c3ccccc3OC)C2=O)cc1`, the Toxicity with Schistosoma mansoni [1], in the test on Schistosoma mansoni [2] and in the test with Schistosoma mansoni [3] was 0 throughout.
As to `COC(=O)c1ccc(Cl)c2c1C1C=CCC1C(c1cccc3ccccc13)N2` (stereo not given), the Toxicity with Schistosoma mansoni [1], with Schistosoma mansoni [2] and with Schistosoma mansoni [3] was 0 throughout.
Regarding `CC1CC2=C(CC1CNCCCN(C)C)C(C)(C)CCC2` (stereo not given), the Toxicity in the test with Schistosoma mansoni [1], with Schistosoma mansoni [2] and with Schistosoma mansoni [3] was 4 throughout.
For the compound `Cc1ccc(-c2cc3nc4c(c(O)n3n2)CCCC4)cc1`, the Toxicity in the test with Schistosoma mansoni [1], with Schistosoma mansoni [2] and in the test with Schistosoma mansoni [3] was 0 each time.
For the compound `CCN1CCCC1CNc1[nH]cnc2c3cc(Cl)ccc3nc1-2` (stereo not given), the Toxicity in the test on Schistosoma mansoni [1], in the test with Schistosoma mansoni [2] and in the test with Schistosoma mansoni [3] was 0 throughout.
For `N=c1n(CCN2CCCCC2)c2ccccc2n1CC(=O)c1ccc(Cl)c(Cl)c1`, the Toxicity in the test on Schistosoma mansoni [1] amounted to 4; in the test with Schistosoma mansoni [2], 4; in the test on Schistosoma mansoni [3] it was 3.
For `CC(=O)Nc1nnc(SCc2c(C)cc(C(C)(C)C)cc2C)s1`, the Toxicity in the test with Schistosoma mansoni [1], in the test with Schistosoma mansoni [2] and with Schistosoma mansoni [3] was 0 throughout.
Take `COc1ccccc1CNC(=O)CCn1c(=O)[nH]c2ccsc2c1=O`: the Toxicity in the test with Schistosoma mansoni [1], in the test on Schistosoma mansoni [2] and with Schistosoma mansoni [3] was 0 in each case.
For the compound `CCCCCCc1cc(O)c2c3c(c(=O)oc2c1)CCC(C)C3` (stereo not given), the Toxicity in the test with Schistosoma mansoni [1] amounted to 0; in the test with Schistosoma mansoni [2] it was 2; in the test with Schistosoma mansoni [3] it was 0.
Take `CCN1CCN(c2c(C(=O)c3ccccc3)cnc3cc(OC)c(OC)cc23)CC1`: the Toxicity with Schistosoma mansoni [1], with Schistosoma mansoni [2] and in the test with Schistosoma mansoni [3] was 0 throughout.
Regarding `CCOc1c(Cl)cc(CNC(C)C(O)c2ccccc2)cc1OC` (stereo not given), the Toxicity with Schistosoma mansoni [1], in the test on Schistosoma mansoni [2] and with Schistosoma mansoni [3] was 0 in each case.
For the compound `CCCN(CCC)CCCNC(=O)c1cc2c(-c3ccc(OC)c(OC)c3)nn(C)c2s1`, the results for the Toxicity with Schistosoma mansoni [1], in the test on Schistosoma mansoni [2] and with Schistosoma mansoni [3] were 3, 0 and 0, respectively.
As to `Cc1ccccc1OCCSc1nc2ccc(NC(=O)c3ccccc3)cc2s1`, the Toxicity in the test with Schistosoma mansoni [1], in the test on Schistosoma mansoni [2] and with Schistosoma mansoni [3] was 0 throughout.
For the compound `Cc1cc(NC(=O)c2cccc(C(F)(F)F)c2)n(-c2nc(-c3ccc4c(c3)OCO4)cs2)n1`, the Toxicity worked out at 3 in the test with Schistosoma mansoni [1], 0 in the test on Schistosoma mansoni [2] and 0 in the test on Schistosoma mansoni [3].
Regarding `CCOc1ccc(Nc2ccnc3cc(Cl)ccc23)cc1`, the Toxicity in the test with Schistosoma mansoni [1] amounted to 0; with Schistosoma mansoni [2], 0; in the test with Schistosoma mansoni [3], 2.
Consider `O=C(Nc1ccsc1C(=O)NC1CCCCC1)c1ccc(F)cc1`, for which the Toxicity came to 0 in the test with Schistosoma mansoni [1], 0 in the test on Schistosoma mansoni [2] and 2 in the test with Schistosoma mansoni [3].
On to `O=C1c2ccccc2C2=Nc3ccccc3SC(c3cccc(F)c3)C12` (stereo not given), for which the Toxicity with Schistosoma mansoni [1], with Schistosoma mansoni [2] and with Schistosoma mansoni [3] was 1 each time.
Turning to `Cc1ccccc1OCCSc1nc2ccc(NC(=O)c3cccs3)cc2s1`, the Toxicity in the test on Schistosoma mansoni [1], in the test on Schistosoma mansoni [2] and in the test on Schistosoma mansoni [3] was 0 each time.
Take `Cc1cc(Nc2ccc3ccccc3c2)n2ncnc2n1`: the Toxicity in the test on Schistosoma mansoni [1] is recorded as 1; in the test on Schistosoma mansoni [2], 1; with Schistosoma mansoni [3] it was 0.
As for `CCOC(=O)c1cn(CC)c2cc(N(C)CCc3ccc(OC)c(OC)c3)c(F)cc2c1=O`, the Toxicity with Schistosoma mansoni [1], in the test with Schistosoma mansoni [2] and with Schistosoma mansoni [3] was 0 in each case.
Take `Cc1ccc2nc(C)cc(Nc3cccc(C(F)(F)F)c3)c2c1.Cl`: the Toxicity in the test on Schistosoma mansoni [1] is 3; in the test with Schistosoma mansoni [2], 2; in the test with Schistosoma mansoni [3] it was 2.
With `CCC(O)c1ccc(Br)cc1NC(=O)c1cccc(Cl)c1` (stereo not given), the Toxicity in the test with Schistosoma mansoni [1], in the test with Schistosoma mansoni [2] and in the test with Schistosoma mansoni [3] was 0 in each case.
As to `O=C(Nc1ccc(N2CCN(Cc3ccccc3)CC2)cc1)c1cccs1.O=C(O)C(F)(F)F`, the Toxicity in the test on Schistosoma mansoni [1], in the test on Schistosoma mansoni [2] and in the test on Schistosoma mansoni [3] was 0 each time.
In the case of `COc1ccc(N2CCN(C(CNC(=O)C3CCCCC3)c3ccc4c(c3)OCO4)CC2)cc1` (stereo not given), the Toxicity in the test on Schistosoma mansoni [1], in the test on Schistosoma mansoni [2] and in the test with Schistosoma mansoni [3] was 0 throughout.
As for `Cc1ccc(F)cc1NC(=O)c1cc(Cl)ccc1Nc1ccccc1`, the Toxicity in the test with Schistosoma mansoni [1], with Schistosoma mansoni [2] and in the test with Schistosoma mansoni [3] was 0 in each case.
In the case of `c1ccc(Cn2c(N=Nc3c(Nc4ccccc4)ccc4ccccc34)nc3ccccc32)cc1`, the Toxicity in the test on Schistosoma mansoni [1], in the test on Schistosoma mansoni [2] and in the test with Schistosoma mansoni [3] was 0 throughout.
Consider `Oc1c(C(Nc2ccccn2)c2cccc(Oc3ccccc3)c2)ccc2cccnc12` (stereo not given), for which the Toxicity amounted to 4 with Schistosoma mansoni [1], 4 in the test on Schistosoma mansoni [2] and 0 in the test with Schistosoma mansoni [3].
With `Cc1cc(=O)oc2c1ccc1oc(C(=O)c3ccccc3)c(C)c12`, the Toxicity with Schistosoma mansoni [1], in the test with Schistosoma mansoni [2] and in the test with Schistosoma mansoni [3] was 0 in each case.
Take `COc1ccccc1CNC(=O)CCn1c(=O)[nH]c2ccccc2c1=O`: the Toxicity in the test on Schistosoma mansoni [1], in the test with Schistosoma mansoni [2] and in the test on Schistosoma mansoni [3] was 0 in each case.
